One series addresses HIV protease (Human immunodeficiency virus type 1 group M subtype B, UniProt P04585). In words: HIV protease enzyme assay (fluorogenic substrate 2-aminobenzoyl-Ile-Nle-Phe(p-NO2)-Gln-ArgNH2). It is filed as biochemical. Here is the method:
The compounds of the present invention are effective HIV protease inhibitors. […] The calculated IC50 indicates the concentration providing inhibition of 50%, i.e., the concentration at which the inhibitor compound reduces enzyme activity by 50%). The enzyme method is described below. The substrate is 2-aminobenzoyl-Ile-Nle-Phe(p-NO2)-Gln-ArgNH2. The positive control is MVT-101 [Miller, M. et al, Science, 246, 1149 (1989)]. The assay conditions are as follows: • Assay buffer: 20 mM sodium phosphate, pH 6.4 • 20% glycerol • 1 mM EDTA • 1 mM DTT • 0.1% CHAPS
The above described substrate is dissolved in DMSO, then diluted 10 fold in assay buffer. Final substrate concentration in the assay is […].
HIV protease is diluted in the assay buffer to a final concentration of glycerol is 18%. The test compound is dissolved in DMSO and diluted in DMSO to 10× the test concentration; […] of the enzyme preparation is added, the materials mixed and then the mixture is incubated at ambient temperature for 15 minutes. The enzyme reaction is initiated by the addition of […] of substrate. The increase in fluorescence is monitored at 4 time points (0, 8, 16 and 24 minutes) at ambient temperature. Each assay is carried out in duplicate wells.

Series [1] is described as follows: TD50 of Table 1 (toxic dose, method not described).
Another series concerns HIV. In words: EC50 of Table 1 (antiviral activity, method not described). Format: cell-based.
Where [2] appears, read: HIV protease, pH 6.4, ambient temperature, read-out: IC50.
[3] abbreviates: IC50 (range given for the listed examples), inhibition of the HIV enzyme, range over Examples 4, 4a, 7, 8 and 9.
Setting [4] is: IC50, HIV protease, pH 6.4, ambient temperature.

Like-named read-outs stand apart in the source and are kept apart here.

Usually IC50 stands for the point on the concentration scale where inhibition reaches its midpoint. Broadly, the EC50 is the midpoint of the concentration-response curve. A high value points to weaker potency. Regarding “2H-thiopyran-3-carboxamide, N-(3-[[[(1,1-dimethylethyl amino]-carbonyl](3-methylbutyl) amino]-2-hydroxy-1-(phenylmethyl) propyl]tetrahydro,-1,1-dioxide. [Example 4]”, the IC50 on HIV protease (setting [2]) was 13 nM. Also, in series [1], the TD50 is recorded as 308,000 nM. Also, the EC50 in the series on HIV was found to be 63 nM.
On to `CC(C)CN(CC(O)C(Cc1ccccc1)NC(=O)C1CCCS(=O)(=O)C1)S(=O)(=O)NC(C)(C)C` (centres unmarked) [Example 9], for which the concentration for half-maximal inhibition (IC50) is 140 nM at HIV protease (setting [2]); 3 to 140 nM at HIV protease (inhibition of the HIV enzyme, range over Examples 4, 4a, 7, 8 and 9, read-out: IC50 (range given for the listed examples)).
In the case of `CC(C)(C)NC(=O)[C@@H]1C[C@@H]2CCCC[C@@H]2CN1C[C@@H](O)[C@H](Cc1ccccc1)NC(=O)C1CCCS(=O)(=O)C1` (some centres unmarked) [Example 7], the IC50 against HIV protease (setting [3]) is 3 to 140 nM; on HIV protease (setting [4]), 3 nM.
As to `CC(C)CCN(C[C@@H](O)[C@H](Cc1ccccc1)NC(=O)C1CCCS(=O)(=O)C1)C(=O)NC(C)(C)Cn1ccnc1` (some centres unmarked) [Example 4a], the IC50 was 3 to 140 nM at HIV protease (setting [3]) and 46 nM on HIV protease (setting [4]).
For the compound `CC(C)CCN(C[C@@H](O)[C@H](Cc1ccccc1)NC(=O)C1CCCS(=O)(=O)C1)S(=O)(=O)c1ccccc1` (some centres unmarked) [Example 8], the IC50 was 3 to 140 nM at HIV protease (setting [3]) and 4 nM on HIV protease (setting [4]).

The values above are taken from patent publication US7112683B2, “Cyclic sulfone containing retroviral protease inhibitors” (priority 1992, dated 2006).
